# Reference: patent US20090099158A1, “TETRAHYDROISOQUINOLINE COMPOUNDS AS MODULATORS OF THE HISTAMINE H3 RECEPTOR” (priority 2007, published 2009)
# Target: T1, cloned human H3 receptors (Homo sapiens, UniProt Q9Y5N1)
# T1 construct: expressed in transfected cells; host or cells: SK-N-MC cells
# Test: H3 Receptor Binding (Human)
# Details: cloned human H3 receptors stably expressed in SK-N-MC cells; average of the results obtained
# Method: Binding of compounds to the cloned human H3 receptors, stably expressed in SK-N-MC cells, was performed as described by Barbier, A. J. et al. (Br. J. Pharmacol. 2004, 143(5), 649-661). Data for compounds tested in this assay are presented in Table 1 as an average of the results obtained.
# T1 sequence (Q9Y5N1 whole entry): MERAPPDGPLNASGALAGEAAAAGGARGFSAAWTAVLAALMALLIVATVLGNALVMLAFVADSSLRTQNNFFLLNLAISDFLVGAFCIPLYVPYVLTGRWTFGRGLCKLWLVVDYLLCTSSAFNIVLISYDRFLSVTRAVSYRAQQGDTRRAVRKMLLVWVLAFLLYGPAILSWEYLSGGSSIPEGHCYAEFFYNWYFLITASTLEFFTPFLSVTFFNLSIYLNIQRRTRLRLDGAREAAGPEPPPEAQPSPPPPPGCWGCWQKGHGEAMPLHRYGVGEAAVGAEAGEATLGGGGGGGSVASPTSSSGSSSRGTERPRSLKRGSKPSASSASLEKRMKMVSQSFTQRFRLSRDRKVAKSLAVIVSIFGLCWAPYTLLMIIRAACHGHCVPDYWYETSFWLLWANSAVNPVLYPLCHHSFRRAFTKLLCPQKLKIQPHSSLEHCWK
row,Ki [nM],Compound
1,32,"O=C(c1ccc2c(c1)CCN(C(=O)c1ccccc1Cl)C2)N1CCN(C2CCCC2)CC1 [Example 68, [2-(2-Chloro-benzoyl)-1,2,3,4-tetrahydro-isoquinolin-6-yl]-(4-cyclopentyl-piperazin-1-yl)-methanone]"
2,91,"O=C(c1ccc2c(c1)CCN(C(=O)c1ccc(Cl)cc1)C2)N1CCN(C2CCCC2)CC1 [Example 69, [2-(4-Chloro-benzoyl)-1,2,3,4-tetrahydro-isoquinolin-6-yl]-(4-cyclopentyl-piperazin-1-yl)-methanone]"
3,65,"Cc1ccc(C(=O)N2CCc3cc(C(=O)N4CCN(C5CCCC5)CC4)ccc3C2)cc1 [Example 70, (4-Cyclopentyl-piperazin-1-yl)-[2-(4-methyl-benzoyl)-1,2,3,4-tetrahydro-isoquinolin-6-yl]-methanone]"
4,48,"O=C(Cc1ccc(F)cc1)N1CCc2cc(C(=O)N3CCN(C4CCCC4)CC3)ccc2C1 [Example 71, 1-[6-(4-Cyclopentyl-piperazine-1-carbonyl)-3,4-dihydro-1H-isoquinolin-2-yl]-2-(4-fluoro-phenyl)-ethanone]"
5,80,"O=C(c1ccc2c(c1)CCN(C(=O)c1ccccc1F)C2)N1CCN(C2CCCCC2)CC1 [Example 72, (4-Cyclohexyl-piperazin-1-yl)-[2-(2-fluoro-benzoyl)-1,2,3,4-tetrahydro-isoquinolin-6-yl]-methanone]"
6,109,"O=C(c1ccc2c(c1)CCN(C(=O)c1cccc(F)c1)C2)N1CCN(C2CCCCC2)CC1 [Example 73, (4-Cyclohexyl-piperazin-1-yl)-[2-(3-fluoro-benzoyl)-1,2,3,4-tetrahydro-isoquinolin-6-yl]-methanone]"
7,109,"O=C(c1ccc2c(c1)CCN(C(=O)c1ccc(F)cc1)C2)N1CCN(C2CCCCC2)CC1 [Example 74, (4-Cyclohexyl-piperazin-1-yl)-[2-(4-fluoro-benzoyl)-1,2,3,4-tetrahydro-isoquinolin-6-yl]-methanone]"
8,77,"O=C(c1ccc2c(c1)CCN(C(=O)c1ccccc1Cl)C2)N1CCN(C2CCCCC2)CC1 [Example 75, [2-(2-Chloro-benzoyl)-1,2,3,4-tetrahydro-isoquinolin-6-yl]-(4-cyclohexyl-piperazin-1-yl)-methanone]"
9,100,"O=C(c1ccc2c(c1)CCN(C(=O)c1cccc(Cl)c1)C2)N1CCN(C2CCCCC2)CC1 [Example 76, [2-(3-Chloro-benzoyl)-1,2,3,4-tetrahydro-isoquinolin-6-yl]-(4-cyclohexyl-piperazin-1-yl)-methanone]"
10,180,"O=C(c1ccc2c(c1)CCN(C(=O)c1ccc(Cl)cc1)C2)N1CCN(C2CCCCC2)CC1 [Example 77, [2-(4-Chloro-benzoyl)-1,2,3,4-tetrahydro-isoquinolin-6-yl]-(4-cyclohexyl-piperazin-1-yl)-methanone]"
11,70,"COc1ccccc1C(=O)N1CCc2cc(C(=O)N3CCN(C4CCCCC4)CC3)ccc2C1 [Example 78, (4-Cyclohexyl-piperazin-1-yl)-[2-(2-methoxy-benzoyl)-1,2,3,4-tetrahydro-isoquinolin-6-yl]-methanone]"
12,169,"COc1cccc(C(=O)N2CCc3cc(C(=O)N4CCN(C5CCCCC5)CC4)ccc3C2)c1 [Example 79, (4-Cyclohexyl-piperazin-1-yl)-[2-(3-methoxy-benzoyl)-1,2,3,4-tetrahydro-isoquinolin-6-yl]-methanone]"
13,70,N#Cc1cccc(C(=O)N2CCc3cc(C(=O)N4CCN(C5CCCCC5)CC4)ccc3C2)c1 [Example 80]
14,65,"N#Cc1ccc(C(=O)N2CCc3cc(C(=O)N4CCN(C5CCCCC5)CC4)ccc3C2)cc1 [Example 81, 4-[6-(4-Cyclohexyl-piperazine-1-carbonyl)-3,4-dihydro-1H-isoquinoline-2-carbonyl]-benzonitrile]"
15,55,"Cc1ccccc1C(=O)N1CCc2cc(C(=O)N3CCN(C4CCCCC4)CC3)ccc2C1 [Example 82, (4-Cyclohexyl-piperazin-1-yl)-[2-(2-methyl-benzoyl)-1,2,3,4-tetrahydro-isoquinolin-6-yl]-methanone]"
16,257,"Cc1ccc(C(=O)N2CCc3cc(C(=O)N4CCN(C5CCCCC5)CC4)ccc3C2)cc1 [Example 83, (4-Cyclohexyl-piperazin-1-yl)-[2-(4-methyl-benzoyl)-1,2,3,4-tetrahydro-isoquinolin-6-yl]-methanone]"
17,180,"CC(C)(C)c1ccc(C(=O)N2CCc3cc(C(=O)N4CCN(C5CCCCC5)CC4)ccc3C2)cc1 [Example 84, [2-(4-tert-Butyl-benzoyl)-1,2,3,4-tetrahydro-isoquinolin-6-yl]-(4-cyclohexyl-piperazin-1-yl)-methanone]"
18,118,"O=C(c1ccc2c(c1)CCN(C(=O)c1ccccc1)C2)N1CCN(C2CCCCC2)CC1 [Example 85, (2-Benzoyl-1,2,3,4-tetrahydro-isoquinolin-6-yl)-(4-cyclohexyl-piperazin-1-yl)-methanone]"

row,Ki [nM],Compound
1,27,"O=C(c1ccc2c(c1)CCN(C(=O)c1ccccc1F)C2)N1CCN2CCCCC2C1 (stereo not drawn) [Example 86, [2-(2-Fluoro-benzoyl)-1,2,3,4-tetrahydro-isoquinolin-6-yl]-(octahydro-pyrido[1,2-a]pyrazin-2-yl)-methanone]"
2,23,"O=C(c1cccc(F)c1)N1CCc2cc(C(=O)N3CCN4CCCCC4C3)ccc2C1 (stereo not drawn) [Example 87, [2-(3-Fluoro-benzoyl)-1,2,3,4-tetrahydro-isoquinolin-6-yl]-(octahydro-pyrido[1,2-a]pyrazin-2-yl)-methanone]"
3,24,"O=C(c1ccc(F)cc1)N1CCc2cc(C(=O)N3CCN4CCCCC4C3)ccc2C1 (stereo not drawn) [Example 88, [2-(4-Fluoro-benzoyl)-1,2,3,4-tetrahydro-isoquinolin-6-yl]-(octahydro-pyrido[1,2-a]pyrazin-2-yl)-methanone]"
4,21,"O=C(c1ccc2c(c1)CCN(C(=O)c1ccccc1Cl)C2)N1CCN2CCCCC2C1 (stereo not drawn) [Example 89, [2-(2-Chloro-benzoyl)-1,2,3,4-tetrahydro-isoquinolin-6-yl]-(octahydro-pyrido[1,2-a]pyrazin-2-yl)-methanone]"
5,19,"O=C(c1cccc(Cl)c1)N1CCc2cc(C(=O)N3CCN4CCCCC4C3)ccc2C1 (stereo not drawn) [Example 90, [2-(3-Chloro-benzoyl)-1,2,3,4-tetrahydro-isoquinolin-6-yl]-(octahydro-pyrido[1,2-a]pyrazin-2-yl)-methanone]"
6,25,"O=C(c1ccc(Cl)cc1)N1CCc2cc(C(=O)N3CCN4CCCCC4C3)ccc2C1 (stereo not drawn) [Example 91, [2-(4-Chloro-benzoyl)-1,2,3,4-tetrahydro-isoquinolin-6-yl]-(octahydro-pyrido[1,2-a]pyrazin-2-yl)-methanone]"
7,23,"COc1ccccc1C(=O)N1CCc2cc(C(=O)N3CCN4CCCCC4C3)ccc2C1 (stereo not drawn) [Example 92, [2-(2-Methoxy-benzoyl)-1,2,3,4-tetrahydro-isoquinolin-6-yl]-(octahydro-pyrido[1,2-a]pyrazin-2-yl)-methanone]"
8,17,"COc1cccc(C(=O)N2CCc3cc(C(=O)N4CCN5CCCCC5C4)ccc3C2)c1 (stereo not drawn) [Example 93, [2-(3-Methoxy-benzoyl)-1,2,3,4-tetrahydro-isoquinolin-6-yl]-(octahydro-pyrido[1,2-a]pyrazin-2-yl)-methanone]"
9,22,"N#Cc1cccc(C(=O)N2CCc3cc(C(=O)N4CCN5CCCCC5C4)ccc3C2)c1 (stereo not drawn) [Example 94, 3-[6-(Octahydro-pyrido[1,2-a]pyrazine-2-carbonyl)-3,4-dihydro-1H-isoquinoline-2-carbonyl]-benzonitrile]"
10,16,"N#Cc1ccc(C(=O)N2CCc3cc(C(=O)N4CCN5CCCCC5C4)ccc3C2)cc1 (stereo not drawn) [Example 95, 4-[6-(Octahydro-pyrido[1,2-a]pyrazine-2-carbonyl)-3,4-dihydro-1H-isoquinoline-2-carbonyl]-benzonitrile]"
11,15,"Cc1ccccc1C(=O)N1CCc2cc(C(=O)N3CCN4CCCCC4C3)ccc2C1 (stereo not drawn) [Example 96, [2-(2-Methyl-benzoyl)-1,2,3,4-tetrahydro-isoquinolin-6-yl]-(octahydro-pyrido[1,2-a]pyrazin-2-yl)-methanone]"
12,38,"Cc1ccc(C(=O)N2CCc3cc(C(=O)N4CCN5CCCCC5C4)ccc3C2)cc1 (stereo not drawn) [Example 97, [2-(4-Methyl-benzoyl)-1,2,3,4-tetrahydro-isoquinolin-6-yl]-(octahydro-pyrido[1,2-a]pyrazin-2-yl)-methanone]"
13,38,"CC(C)(C)c1ccc(C(=O)N2CCc3cc(C(=O)N4CCN5CCCCC5C4)ccc3C2)cc1 (stereo not drawn) [Example 98, [2-(4-tert-Butyl-benzoyl)-1,2,3,4-tetrahydro-isoquinolin-6-yl]-(octahydro-pyrido[1,2-a]pyrazin-2-yl)-methanone]"
14,20,"O=C(c1ccccc1)N1CCc2cc(C(=O)N3CCN4CCCCC4C3)ccc2C1 (stereo not drawn) [Example 99, (2-Benzoyl-1,2,3,4-tetrahydro-isoquinolin-6-yl)-(octahydro-pyrido[1,2-a]pyrazin-2-yl)-methanone]"
15,35,"CCS(=O)(=O)N1CCc2cc(C(=O)N3CCN(C4CCC4)CC3)ccc2C1 [Example 100, (4-Cyclobutyl-piperazin-1-yl)-(2-ethanesulfonyl-1,2,3,4-tetrahydro-isoquinolin-6-yl)-methanone]"
16,34,"CCCS(=O)(=O)N1CCc2cc(C(=O)N3CCN(C4CCC4)CC3)ccc2C1 [Example 101, (4-Cyclobutyl-piperazin-1-yl)-[2-(propane-1-sulfonyl)-1,2,3,4-tetrahydro-isoquinolin-6-yl]-methanone]"
17,25,"CC(C)S(=O)(=O)N1CCc2cc(C(=O)N3CCN(C4CCC4)CC3)ccc2C1 [Example 102, (4-Cyclobutyl-piperazin-1-yl)-[2-(propane-2-sulfonyl)-1,2,3,4-tetrahydro-isoquinolin-6-yl]-methanone]"
18,22,"O=C(c1ccc2c(c1)CCN(S(=O)(=O)c1ccccc1)C2)N1CCN(C2CCC2)CC1 [Example 103, (2-Benzenesulfonyl-1,2,3,4-tetrahydro-isoquinolin-6-yl)-(4-cyclobutyl-piperazin-1-yl)-methanone]"
